For data set [1], the system named is KRAS p.G12C tumors. Particulars: preclinical KRAS p.G12C models; cited from earlier work.
A short description of a further data set: clinical. Particulars: human, in vivo, po, 960 mg.
The next data set relates to patients with CRC. Description: Phase 1 study, updated results (cutoff Jan. 8, 2020): adverse events in patients with CRC, N = 42.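 Also: values are patient incidence of adverse events, i.e. counts of patients experiencing each event.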 It counts as in vivo.
The subject of data set [2] is KRAS p.G12C tumors. Description: Preclinical KRAS p.G12C tumor models. Format: in vivo.
Data set [3] has as its system KRAS p.G12C tumors. Description: Treatment of immune-competent mice. It counts as in vivo.
Data set [4] concerns patients with advanced solid tumors other than NSCLC and CRC.
Source text: (§1) A subject undergoing a therapy is monitored for adverse events (AE) during the course of the therapy. A treatment related AE is an AE that is related to the treatment drug. A treatment emergent AE is one that a subject develops undergoing the treatment that was not present prior to start of therapy. In some cases, the treatment emergent AE is not or suspected not to be related to the treatment itself AEs are characterized as one of five grades—grade 1 is a mild AE; grade 2 is a moderate AE; grade 3 is a severe AE; grade 4 is a life-threatening or disabling AE; and grade 5 is death related to AE.
(§2) The grading of AEs is based on the guidelines provided in the CTCAE version 5.0. AEs for DLT assessment: Hematological toxicity: Febrile neutropenia; Neutropenic infection; Grade 4 neutropenia; Grade ≥3 thrombocytopenia for >7 days; Grade 3 thrombocytopenia with grade ≥2 bleeding; Grade 4 thrombocytopenia; Grade 4 Anemia
(§3) Non-hematological toxicity Grade ≥4, vomiting or diarrhea; Grade 3 diarrhea or grade 3 vomiting lasting more than 3 days despite optimal medical support; Grade ≥3 nausea for 3 days or more despite optimal medical support; Any other grade ≥3 AE

“And” between values parts separate entries of the source, which are not always exact repeats. Equal values may be shown once.

Source text for patients with CRC: as §1, §2, §3
All enrolled patients had received prior lines of systemic anticancer therapy.

On to `C=CC(=O)N1CCN(c2ncnc3c(F)c(-c4c(O)cccc4F)c(Cl)cc23)CC1` [ARS-1620], for which the in vivo efficacy entry in the data set with KRAS p.G12C tumors [1] is recorded as “demonstrates in vivo efficacy”.

With `C=CC(=O)N1CCN(c2nc(=O)n(-c3c(C)ccnc3C(C)C)c3nc(-c4c(O)cccc4F)c(F)cc23)[C@@H](C)C1` [Compound A, 4-((S)-4-acryloyl-2-methylpiperazin-1-yl)-6-fluoro-7-(2-fluoro-6-hydroxyphenyl)-1-(2-isopropyl-4-methylpyridin-3-yl)pyrido[2,3-d]pyrimidin-2(1H)-one], in “clinical”, the AUC is 65.3 µg·h/mL and the AUC(0-t) turned out to be 140 µg·h/mL. Besides, the tolerability result in the data set on patients with CRC (CRC patients) is on record as “well tolerated with mild treatment-related toxicities”. For the same molecule, in the data set with patients with CRC (CRC, 42 patients), the “anemia, grade 3 treatment-related AE” value is listed as 1 patient and the “diarrhea, grade 3 treatment-related AE” value was 1 patient. Also, in the data set on patients with CRC (CRC, N = 42), the “AEs leading to treatment discountinuation, Treatment-Emergent AEs (TEAEs)” value is reported as 2 (4.8) n (%); the “AEs leading to treatment discountinuation, Treatment-related TEAEs” value is listed as 0 (0.0) n (%); the “Anemia (treatment-related TEAE of any grade)” value was 2 (4.8) n (%); the “Any grade, Treatment-Emergent AEs (TEAEs)” value is recorded as 38 (90.5) n (%). Moreover, in the data set on patients with CRC (CRC, N = 42), the “Any grade, Treatment-related TEAEs” value is 20 n (%) and 20 (47.6) n (%); the “Blood creatine phosphokinase increase (treatment-related TEAE of any grade)” value is listed as 2 (4.8) n (%); the “Diarrhea (treatment-related TEAE of any grade)” value was 8 (19.0) n (%); the “Dose-limiting toxicities, Treatment-related TEAEs” value is on record as 0 (0.0) n (%). Further, in the data set with patients with CRC (CRC, N = 42), the “Fatal AEs, Treatment-Emergent AEs (TEAEs)” value is recorded as 3 (7.1) n (%); the “Fatal AEs, Treatment-related TEAEs” value was 0 (0.0) n (%); the “Fatigue (treatment-related TEAE of any grade)” value is given as 4 (9.5) n (%); the “Grade ≥2, Treatment-Emergent AEs (TEAEs)” value is recorded as 29 (69.0) n (%). In the data set on patients with CRC (CRC, N = 42), the “Grade ≥2, Treatment-related TEAEs” value is 9 (21.4) n (%); the “Grade ≥3, Treatment-Emergent AEs (TEAEs)” value is recorded as 13 (31.0) n (%); the “Grade ≥3, Treatment-related TEAEs” value is 2 (4.8) n (%); the “Grade ≥4, Treatment-Emergent AEs (TEAEs)” value is 3 (7.1) n (%). Besides, in the data set on patients with CRC (CRC, N = 42), the “Grade ≥4, Treatment-related TEAEs” value is listed as 0 (0.0) n (%); the “Nausea (treatment-related TEAE of any grade)” value is reported as 2 (4.8) n (%); the “Serious AEs, Treatment-Emergent AEs (TEAEs)” value is 10 (23.8) n (%); the “Serious AEs, Treatment-related TEAEs” value is recorded as 0 (0.0) n (%). In addition, the “Vomiting (treatment-related TEAE of any grade)” value with patients with CRC (CRC, N = 42) is listed as 2 (4.8) n (%). Besides, the “effect in combination with chemotherapy and targeted agents” value in the data set with KRAS p.G12C tumors [2] is “significantly improved the anti-tumor efficacy of chemotherapy and targeted agents”. In addition, in the data set with KRAS p.G12C tumors [3], the “outcome in combination with immune checkpoint inhibition” value is reported as “durable cures”. Besides, the “toxicities associated with Compound A” value in data set [4] (other solid tumors) is “mild and manageable”. Also, in data set [4] (other solid tumors, N = 25), the “AEs leading to treatment discontinuation, All Treatment-Emergent AEs (TEAEs)” value is on record as 3 (12.0) n (%); the “Any grade, All Treatment-Emergent AEs (TEAEs)” value is 20 (80.0) n (%); the “Any grade, All Treatment-Related TEAEs” value is recorded as 9 (36.0) n (%); the “Dose-limiting toxicities, All Treatment-Related TEAEs” value is on record as 0 (0.0) n (%). Also, in data set [4] (other solid tumors, N = 25), the “Fatal AEs, All Treatment-Emergent AEs (TEAEs)” value is listed as 4 (16.0) n (%); the “Fatal AEs, All Treatment-Related TEAEs” value is given as 0 (0.0) n (%); the “Grade ≥2, All Treatment-Emergent AEs (TEAEs)” value is listed as 17 (68.0) n (%); the “Grade ≥2, All Treatment-Related TEAEs” value is reported as 4 (16.0) n (%). Besides, in data set [4] (other solid tumors, N = 25), the “Grade ≥3, All Treatment-Emergent AEs (TEAEs)” value is 15 (60.0) n (%); the “Grade ≥3, All Treatment-Related TEAEs” value is recorded as 2 (8.0) n (%); the “Grade ≥4, All Treatment-Emergent AEs (TEAEs)” value is 4 (16.0) n (%); the “Grade ≥4, All Treatment-Related TEAEs” value is 0 (0.0) n (%). In data set [4] (other solid tumors, N = 25), the “Serious AEs, All Treatment-Emergent AEs (TEAEs)” value is given as 13 (52.0) n (%) and the “Serious AEs, All Treatment-Related TEAEs” value is listed as 1 (4.0) n (%). Besides, in data set [4] (out of 25 patients), the “diarrhea, grade 3 treatment-related AE” value is listed as 1 patients; the “diarrhea, treatment-related TEAE” value stood at 2 patients; the “fatigue, treatment-related TEAE” value amounted to 2 patients; the “pneumonia, grade 3 treatment-related AE” value turned out to be 1 patients.

By AUC is commonly meant concentration integrated over time. Read a high AUC as more exposure. Usually AUC(0-t) stands for the area under the concentration-time curve up to a stated or last time point.

Values taken from US11426404B2, “Dosing of KRAS inhibitor for treatment of cancers” (AMGEN INC., priority 2019, dated 2022).
